Results reported in patent publication US9295651B2, “Nanoconjugates and nanoconjugate formulations” (priority 2009, dated 2016).

Key:
[1] = Lyophilization of PLGA-mPEG NPs in the presence of lyoprotectants, reconstitution with water, DLS; type: physicochemical; design: key to Aggr. (visible large aggregates): Y = aggregates observed; N = no aggregates observed; settings: for Size in nm: PLGA-mPEG NPs lyophilized and reconstituted; for prevention of NP aggregation during lyophilization (in words): PLGA-mPEG5k NPs, lyoprotectant/NP mass ratio up to 10
Experimental: Lyophilization of PLGA-mPEG NPs in the presence of lyoprotectants. An acetone solution of PLGA-mPEG (5 mg/mL, 100 μL) was added dropwise into a vigorously stirred water solution (4 mL) containing the NCs to make the PLGA-mPEG NPs. A lyoprotectant was added to the vigorously stirred NC solution at the selected lyoprotectant/NC mass ratio (varying from 2 to 20). The solution was then lyophilized, reconstituted with 2 mL water and stirred for 5 minutes. The sizes of the resulting NCs were analyzed by DLS.

LLC tumors = test: Tumor prevention/inhibition study, LLC cells co-injected subcutaneously with test article; type: in vivo, C57B1/6 female mice; settings: at 25 days, 5 mg/kg in 1:1 Cremophor EL/ethanol
Experimental: To access the ability of paclitaxel-loaded nanoparticles to inhibit establishment of lung cancer in an in vivo model mimicking microscopic disease that can remain when the surgical margin is close to the tumor, Ptxl-PLA NCs were evaluated in a rapidly growing subcutaneous tumor model. Specifically, the ability of Ptxl-PLA NCs to prevent establishment of rapidly growing LLC tumors in C57B1/6 female mice compared to Ptxl alone (in a clinical formulation) and controls without any drugs was assessed. In these experiments, 1,000,000 LLC tumor cells plus Ptxl-LA25/PLGA-mPEG nanoparticles containing a total dose of 5 or 50 mg/kg incorporated Ptxl were injected subcutaneously into the flank of a mouse. Other groups received the injection of 1,000,000 LLC cells alone or LLC cells mixed with Ptxl solubilized with 1:1 Cremophor EL/ethanol as used clinically at 5 mg/kg dosage.

With `OC[C@H]1O[C@H](O[C@H]2[C@H](O)[C@@H](O)C(O)O[C@@H]2CO)[C@H](O)[C@@H](O)[C@@H]1O` (mixture of isomers) [Maltose] the Size in nm ([1]; lyoprotectant/NP mass ratio 2) was greater than 1000 nm, the Size in nm ([1]; lyoprotectant/NP mass ratio 10) was 220.4 nm and the “Aggr. (visible large aggregates)” value ([1]; lyoprotectant/NP mass ratio 2) was “Y”. The “Aggr. (visible large aggregates)” value ([1]; lyoprotectant/NP mass ratio 10) was “Y”, the “Distr. No. (number of particle size distributions)” value ([1]; lyoprotectant/NP mass ratio 10) was 2 and the PDI ([1]; lyoprotectant/NP mass ratio 10) was 0.288. For the same molecule, the “SL/SO (ratio of lyophilized NP size to pre-lyophilized NP size)” value ([1]; lyoprotectant/NP mass ratio 10) was 3.54.
With `O=C[C@H](O)[C@@H](O)[C@@H](O)[C@H](O)CO` [Galactose] the “prevention of NP aggregation during lyophilization (in words)” value (shortened to “prevention”) [1] was “could not prevent NP aggregation at all”, the Size in nm ([1]; lyoprotectant/NP mass ratio 10) was greater than 1000 nm and the “Aggr. (visible large aggregates)” value ([1]; lyoprotectant/NP mass ratio 10) was “Y”.
With `NCC(=O)O` [Glycine] the “prevention” value [1] was “unable to prevent NP aggregation”, the Size in nm ([1]; lyoprotectant/NP mass ratio 10) was greater than 1000 nm and the “Aggr. (visible large aggregates)” value ([1]; lyoprotectant/NP mass ratio 10) was “Y”.
With `CCCCCCCCCCCCOS(=O)(=O)[O-].[Na+]` [SDS, sodium dodecyl sulfate] the “prevention” value [1] was “unable to prevent NP aggregation”, the Size in nm ([1]; lyoprotectant/NP mass ratio 10) was greater than 1000 nm and the “Aggr. (visible large aggregates)” value ([1]; lyoprotectant/NP mass ratio 10) was “Y”.
With `OC[C@@H](O)[C@@H](O)[C@H](O)[C@@H](O)CO` [Sorbitol] the Size in nm ([1]; lyoprotectant/NP mass ratio 2) was greater than 1000 nm, the Size in nm ([1]; lyoprotectant/NP mass ratio 10) was 764.8 nm and the “Aggr. (visible large aggregates)” value ([1]; lyoprotectant/NP mass ratio 2) was “Y”. The “Aggr. (visible large aggregates)” value ([1]; lyoprotectant/NP mass ratio 10) was “Y”, the “Distr. No. (number of particle size distributions)” value ([1]; lyoprotectant/NP mass ratio 10) was 2 and the PDI ([1]; lyoprotectant/NP mass ratio 10) was 0.299. For the same molecule, the “SL/SO (ratio of lyophilized NP size to pre-lyophilized NP size)” value ([1]; lyoprotectant/NP mass ratio 10) was 12.28.
With `OC[C@H]1O[C@@](CO)(O[C@H]2O[C@H](CO)[C@@H](O)[C@H](O)[C@H]2O)[C@@H](O)[C@@H]1O` [Sucrose] the Size in nm ([1]; lyoprotectant/NP mass ratio 2) was 245.2 nm, the Size in nm ([1]; lyoprotectant/NP mass ratio 10) was 217.5 nm and the “Aggr. (visible large aggregates)” value ([1]; lyoprotectant/NP mass ratio 2) was “Y”. The “Distr. No. (number of particle size distributions)” value ([1]; lyoprotectant/NP mass ratio 2) was 2, the PDI ([1]; lyoprotectant/NP mass ratio 2) was 0.227 and the “SL/SO (ratio of lyophilized NP size to pre-lyophilized NP size)” value ([1]; lyoprotectant/NP mass ratio 2) was 3.93. The “Aggr. (visible large aggregates)” value ([1]; lyoprotectant/NP mass ratio 10) was “Y”, the “Distr. No. (number of particle size distributions)” value ([1]; lyoprotectant/NP mass ratio 10) was 2 and the PDI ([1]; lyoprotectant/NP mass ratio 10) was 0.220. The “SL/SO (ratio of lyophilized NP size to pre-lyophilized NP size)” value ([1]; lyoprotectant/NP mass ratio 10) was 3.49.
With `CC(=O)O[C@H]1C(=O)[C@@]2(C)[C@H]([C@H](OC(=O)c3ccccc3)[C@]3(O)C[C@H](OC(=O)[C@H](O)[C@@H](NC(=O)c4ccccc4)c4ccccc4)C(C)=C1C3(C)C)[C@]1(OC(C)=O)CO[C@@H]1C[C@@H]2O` [paclitaxel] the “tumors at injection site” value (LLC tumors) was “large tumors were noted”.
